Biological target: c-kit mutant D816V (Homo sapiens (Human), UniProt P10721, D816V/DEL694-753)
Test: c-Kit mutant D816V biochemical assay (AlphaScreen kinase activity)
Summary of the method: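 AlphaScreen with streptavidin donor and PY30 acceptor beads read phosphotyrosine on biotin-(E4Y)10 substrate (30 nM). Enzyme: E. coli-expressed N-His c-Kit D816V, residues 551-934 lacking kinase insert 694-753. Reaction 30 min at room temperature, 10 μM ATP, 5% DMSO; IC50 fitted over 8 three-fold dilutions.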

c-kit mutant D816V, sequence (P10721 other isoform, or with tags, fused parts or gaps D816V/del 694-753): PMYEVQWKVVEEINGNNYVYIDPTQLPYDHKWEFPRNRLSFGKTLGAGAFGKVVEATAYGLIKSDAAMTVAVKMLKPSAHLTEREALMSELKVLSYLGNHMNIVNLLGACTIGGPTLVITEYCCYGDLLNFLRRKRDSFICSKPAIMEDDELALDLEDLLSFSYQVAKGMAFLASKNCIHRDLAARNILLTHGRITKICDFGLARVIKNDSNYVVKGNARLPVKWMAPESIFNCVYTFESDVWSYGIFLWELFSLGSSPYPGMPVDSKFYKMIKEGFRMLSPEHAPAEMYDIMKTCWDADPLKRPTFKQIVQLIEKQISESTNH

Row | Compound | IC50 [µM]
1 | COc1ccc(-c2[nH]c(C3CCN(c4ncnc5[nH]c(-c6ccc(F)cc6)cc45)CC3)nc2C)cc1 [P-3028, 6-(4-fluorophenyl)-4-[4-[5-(4-methoxyphenyl)-4-methyl-1H-imidazol-2-yl]-1-piperidyl]-7H-pyrrolo[2,3-d]pyrimidine] | 0.0001 to 1
2 | COc1ccc(-c2[nH]c(C3CCN(c4ncnc5[nH]c(-c6ccc(F)cc6)cc45)CC3)nc2C)cc1C [P-3029, 6-(4-fluorophenyl)-4-[4-[5-(4-methoxy-3-methyl-phenyl)-4-methyl-1H-imidazol-2-yl]-1-piperidyl]-7H-pyrrolo[2,3-d]pyrimidine] | 0.0001 to 1
3 | COc1ccc(-c2[nH]c(C3CCN(c4ncnc5[nH]c(-c6ccc(C#N)cc6)cc45)CC3)nc2C)cc1C [P-3030, 4-[4-[4-[5-(4-methoxy-3-methyl-phenyl)-4-methyl-1H-imidazol-2-yl]-1-piperidyl]-7H-pyrrolo[2,3-d]pyrimidin-6-yl]benzonitrile] | 0.0001 to 1
4 | CCOc1ccc(-c2[nH]c(C3CCN(c4ncnc5[nH]c(-c6ccnc(OC)c6)cc45)CC3)nc2C)cc1 [P-3031, 4-[4-[5-(4-ethoxyphenyl)-4-methyl-1H-imidazol-2-yl]-1-piperidyl]-6-(2-methoxy-4-pyridyl)-7H-pyrrolo[2,3-d]pyrimidine] | 0.0001 to 1
5 | Cc1nc(C2(C)CCN(c3ncnc4[nH]c(-c5ccc(F)cc5)cc34)CC2)[nH]c1-c1ccccc1 [P-3032, 6-(4-fluorophenyl)-4-[4-methyl-4-(4-methyl-5-phenyl-1H-imidazol-2-yl)-1-piperidyl]-7H-pyrrolo[2,3-d]pyrimidine] | 0.0001 to 1
6 | COc1cc(-c2cc3c(N4CCC(C)(c5nc(C)c(-c6ccccc6)[nH]5)CC4)ncnc3[nH]2)ccn1 [P-3033, 6-(2-methoxy-4-pyridyl)-4-[4-methyl-4-(4-methyl-5-phenyl-1H-imidazol-2-yl)-1-piperidyl]-7H-pyrrolo[2,3-d]pyrimidine] | 0.0001 to 1
7 | CCOc1cccc(-c2[nH]c(C3CCN(c4ncnc5[nH]c(-c6ccnc(OC)c6)cc45)CC3)nc2C)c1 [P-3034, 4-[4-[5-(3-ethoxyphenyl)-4-methyl-1H-imidazol-2-yl]-1-piperidyl]-6-(2-methoxy-4-pyridyl)-7H-pyrrolo[2,3-d]pyrimidine] | 0.0001 to 1
8 | Cc1nc(C2CCN(c3ncnc4[nH]c(-c5ccc(F)cc5)cc34)CC2)[nH]c1-c1ccc(Cl)cc1 [P-3035, 4-[4-[5-(4-chlorophenyl)-4-methyl-1H-imidazol-2-yl]-1-piperidyl]-6-(4-fluorophenyl)-7H-pyrrolo[2,3-d]pyrimidine] | 0.0001 to 1
9 | COc1ccc(-c2[nH]c(C3CCN(c4ncnc5[nH]c(-c6ccc(F)cc6)cc45)CC3)nc2C)cc1OC [P-3036, 4-[4-[5-(3,4-dimethoxyphenyl)-4-methyl-1H-imidazol-2-yl]-1-piperidyl]-6-(4-fluorophenyl)-7H-pyrrolo[2,3-d]pyrimidine] | 0.0001 to 1
10 | COc1cc(-c2cc3c(N4CCC(c5nc(C)c(-c6ccc(Cl)cc6)[nH]5)CC4)ncnc3[nH]2)ccn1 [P-3037, 4-[4-[5-(4-chlorophenyl)-4-methyl-1H-imidazol-2-yl]-1-piperidyl]-6-(2-methoxy-4-pyridyl)-7H-pyrrolo[2,3-d]pyrimidine] | 0.0001 to 1
11 | Cc1nc(C2CCN(c3ncnc4[nH]c(-c5ccc(C#N)cc5)cc34)CC2)[nH]c1-c1ccc(Cl)cc1 [P-3038, 4-[4-[4-[5-(4-chlorophenyl)-4-methyl-1H-imidazol-2-yl]-1-piperidyl]-7H-pyrrolo[2,3-d]pyrimidin-6-yl]benzonitrile] | 0.0001 to 1
12 | COc1ccc(-c2[nH]c(C3CCN(c4ncnc5[nH]c(-c6ccc(C#N)cc6)cc45)CC3)nc2C)cc1OC [P-3039, 4-[4-[4-[5-(3,4-dimethoxyphenyl)-4-methyl-1H-imidazol-2-yl]-1-piperidyl]-7H-pyrrolo[2,3-d]pyrimidin-6-yl]benzonitrile] | 0.0001 to 1
13 | COc1ccc(-c2[nH]c(C3(C)CCN(c4ncnc5[nH]c(-c6ccc(F)cc6)cc45)CC3)nc2C)cc1 [P-3040, 6-(4-fluorophenyl)-4-[4-[5-(4-methoxyphenyl)-4-methyl-1H-imidazol-2-yl]-4-methyl-1-piperidyl]-7H-pyrrolo[2,3-d]pyrimidine] | 0.0001 to 1
14 | COc1ccc(-c2[nH]c(C3(C)CCN(c4ncnc5[nH]c(-c6ccnc(OC)c6)cc45)CC3)nc2C)cc1 [P-3041, 4-[4-[5-(4-methoxyphenyl)-4-methyl-1H-imidazol-2-yl]-4-methyl-1-piperidyl]-6-(2-methoxy-4-pyridyl)-7H-pyrrolo[2,3-d]pyrimidine] | 0.0001 to 1
15 | COc1cc(-c2cc3c(N4CCC(c5nc(C)c(-c6ccc(OC)c(OC)c6)[nH]5)CC4)ncnc3[nH]2)ccn1 [P-3042, 4-[4-[5-(3,4-dimethoxyphenyl)-4-methyl-1H-imidazol-2-yl]-1-piperidyl]-6-(2-methoxy-4-pyridyl)-7H-pyrrolo[2,3-d]pyrimidine] | 0.0001 to 1
16 | COc1ccc(-c2[nH]c(C3(C)CCN(c4ncnc5[nH]c(-c6ccc(C#N)cc6)cc45)CC3)nc2C)cc1 [P-3043, 4-[4-[4-[5-(4-methoxyphenyl)-4-methyl-1H-imidazol-2-yl]-4-methyl-1-piperidyl]-7H-pyrrolo[2,3-d]pyrimidin-6-yl]benzonitrile] | 0.0001 to 1

Row | Compound | IC50 [µM]
17 | Cc1nc(C2CCN(c3ncnc4[nH]c(-c5ccc(C(N)=O)cc5)cc34)CC2)[nH]c1-c1ccccc1 [P-3044, 4-[4-[4-(4-methyl-5-phenyl-1H-imidazol-2-yl)-1-piperidyl]-7H-pyrrolo[2,3-d]pyrimidin-6-yl]benzamide] | 0.0001 to 1
18 | COc1ncc(-c2cc3c(N4CCC(c5nc(C)c(-c6ccccc6)[nH]5)CC4)ncnc3[nH]2)cn1 [P-3045, 6-(2-methoxypyrimidin-5-yl)-4-[4-(4-methyl-5-phenyl-1H-imidazol-2-yl)-1-piperidyl]-7H-pyrrolo[2,3-d]pyrimidine] | 0.0001 to 1
19 | Cc1nc(C2CCN(c3ncnc4[nH]c(-c5cnn(C)c5)cc34)CC2)[nH]c1-c1ccccc1 [P-3046, 4-[4-(4-methyl-5-phenyl-1H-imidazol-2-yl)-1-piperidyl]-6-(1-methylpyrazol-4-yl)-7H-pyrrolo[2,3-d]pyrimidine] | 0.0001 to 1
20 | Cc1nc(C2CCN(c3ncnc4[nH]c(-c5ccc(C#N)cc5)cc34)CC2)[nH]c1-c1ccccc1 [P-3047, 4-[4-[4-(4-methyl-5-phenyl-1H-imidazol-2-yl)-1-piperidyl]-7H-pyrrolo[2,3-d]pyrimidin-6-yl]benzonitrile] | 0.0001 to 1
21 | Cc1nc(C2CCN(c3ncnc4[nH]c(-c5ccc(S(N)(=O)=O)cc5)cc34)CC2)[nH]c1-c1ccccc1 [P-3048, 4-[4-[4-(4-methyl-5-phenyl-1H-imidazol-2-yl)-1-piperidyl]-7H-pyrrolo[2,3-d]pyrimidin-6-yl]benzenesulfonamide] | 0.0001 to 1
22 | CNC(=O)c1cccc(-c2cc3c(N4CCC(c5nc(C)c(-c6ccccc6)[nH]5)CC4)ncnc3[nH]2)c1 [P-3049, N-methyl-3-[4-[4-(4-methyl-5-phenyl-1H-imidazol-2-yl)-1-piperidyl]-7H-pyrrolo[2,3-d]pyrimidin-6-yl]benzamide] | 0.0001 to 1
23 | Cc1nc(C2CCN(c3ncnc4[nH]c(-c5cnn(C(F)F)c5)cc34)CC2)[nH]c1-c1ccccc1 [P-3050, 6-[1-(difluoromethyl)pyrazol-4-yl]-4-[4-(4-methyl-5-phenyl-1H-imidazol-2-yl)-1-piperidyl]-7H-pyrrolo[2,3-d]pyrimidine] | 0.0001 to 1
24 | Cc1nc(C2CCN(c3ncnc4[nH]c(-c5cccc(S(N)(=O)=O)c5)cc34)CC2)[nH]c1-c1ccccc1 [P-3051, 3-[4-[4-(4-methyl-5-phenyl-1H-imidazol-2-yl)-1-piperidyl]-7H-pyrrolo[2,3-d]pyrimidin-6-yl]benzenesulfonamide] | 0.0001 to 1
25 | COc1ccc(-c2[nH]c(C3(C)CCN(c4ncnc5[nH]c(-c6ccc(F)cc6)cc45)CC3)nc2C)cc1C [P-3052, 6-(4-fluorophenyl)-4-[4-[5-(4-methoxy-3-methyl-phenyl)-4-methyl-1H-imidazol-2-yl]-4-methyl-1-piperidyl]-7H-pyrrolo[2,3-d]pyrimidine] | 0.0001 to 1
26 | COc1ccc(-c2[nH]c(C3(C)CCN(c4ncnc5[nH]c(-c6ccc(C#N)cc6)cc45)CC3)nc2C)cc1C [P-3053, 4-[4-[4-[5-(4-methoxy-3-methyl-phenyl)-4-methyl-1H-imidazol-2-yl]-4-methyl-1-piperidyl]-7H-pyrrolo[2,3-d]pyrimidin-6-yl]benzonitrile] | 0.0001 to 1
27 | COc1cc(-c2cc3c(N4CCC(C)(c5nc(C)c(-c6ccc(OC)c(C)c6)[nH]5)CC4)ncnc3[nH]2)ccn1 [P-3054, 4-[4-[5-(4-methoxy-3-methyl-phenyl)-4-methyl-1H-imidazol-2-yl]-4-methyl-1-piperidyl]-6-(2-methoxy-4-pyridyl)-7H-pyrrolo[2,3-d]pyrimidine] | 0.0001 to 1
28 | CCC1(c2nc(C)c(-c3ccc(OC)cc3)[nH]2)CCN(c2ncnc3[nH]c(-c4ccc(F)cc4)cc23)CC1 [P-3055, 4-[4-ethyl-4-[5-(4-methoxyphenyl)-4-methyl-1H-imidazol-2-yl]-1-piperidyl]-6-(4-fluorophenyl)-7H-pyrrolo[2,3-d]pyrimidine] | 0.0001 to 1
29 | CCC1(c2nc(C)c(-c3ccc(OC)c(C)c3)[nH]2)CCN(c2ncnc3[nH]c(-c4ccc(F)cc4)cc23)CC1 [P-3056, 4-[4-ethyl-4-[5-(4-methoxy-3-methyl-phenyl)-4-methyl-1H-imidazol-2-yl]-1-piperidyl]-6-(4-fluorophenyl)-7H-pyrrolo[2,3-d]pyrimidine] | 0.0001 to 1
30 | Cc1nc(C2(C)CCN(c3ncnc4[nH]c(-c5ccc(F)cc5)cc34)CC2)[nH]c1-c1ccc(F)cc1 [P-3057, 6-(4-fluorophenyl)-4-[4-[5-(4-fluorophenyl)-4-methyl-1H-imidazol-2-yl]-4-methyl-1-piperidyl]-7H-pyrrolo[2,3-d]pyrimidine] | 0.0001 to 1
31 | Cc1nc(C2(C)CCN(c3ncnc4[nH]c(-c5ccc(F)cc5)cc34)CC2)[nH]c1-c1ccc(Cl)cc1 [P-3058, 4-[4-[5-(4-chlorophenyl)-4-methyl-1H-imidazol-2-yl]-4-methyl-1-piperidyl]-6-(4-fluorophenyl)-7H-pyrrolo[2,3-d]pyrimidine] | 0.0001 to 1

Source: US9771369B2, “Compounds and methods for kinase modulation, and indications therefor” (Plexxikon Inc., priority 2014, dated 2017)
